In patent US5922557A, “System for stably expressing a high-affinity camp phosphodiesterase and use thereof” (Merck & Co., Inc., priority 1998, dated 1999):
Entries after “also recorded” stand apart in the source; their conditions may differ. Where two headings read alike, the source gives them in different places.

Experiments:
[1] = tested on: high-affinity rolipram binding site, rat forebrain membranes; settings: cited from earlier work
[2] = tested on: PKA in CHO-K1 cells stably expressing PDE IVa; assay: Whole-cell cAMP dependent protein kinase (PKA) activity ratio; assay type: cell-based; settings: CHO-K1; with 1 μM PGI2; read-out: apparent EC50 to activate PKA
Description: PKA activity ratios were determined as the amount of ^32 P transferred to histone F2B in the presence and absence of cAMP as described in Materials and Methods. Data points represent the fractional PKA activation by incubating cells with the indicated concentrations of inhibitor and […]. Experiments were performed in triplicate. n=3 experiments±SD.
CHO-K1 cells were grown and resuspended as described above except that the Hank's buffer was replaced by a solution containing 0.25M sucrose; 10 mM Tris, pH 7.5; and 0.5 mM EDTA. The cells were preincubated and incubated with 1 μM PGI2 and the indicated compounds at room temperature as described above. The incubations were terminated by the addition of 0.05% Triton X-100 (final) and incubating the cells for 5 min on ice. […] This mixture (final volume 220 μl) was incubated in a waterbath for 30 min at 35° C. and terminated by adding 5 ml of ice cold 5% TCA. The precipatated protein was applied to a Whatman GF/B filter under vacuum and the filter was subsequently washed with 3×5 ml ice cold TCA solution. The amount of -32P incorporation was measured by placing the filters in Aquasol and counting in a BECKMAN LSC 5000. Basal cAMP independent protein kinase activity was determined by the inclusion of 1 μM Protein Kinase A Peptide Inhibitor (19) in the reaction mixture. Maximal cAMP protein kinase activity was determined in the presence of 10 μM cAMP. All determinations were performed in triplicate and activity ratios were calculated as the [(kinase activity in the presence of PDE inhibitor minus cAMP independent kinase activity)/(maximal cAMP kinase activity minus cAMP independent kinase activity)]×100.

[3] = tested on: CHO-K1 cells stably expressing rhPDE IVa; assay: cells; assay type: cell-based; settings: for effect of preincubation on sensitivity of the enzyme to inhibitors: whole-cell preparation, data not shown
Description: Levels of cAMP were measured in CHO-K1 cells stably expressing PDE IVa enzyme as outlined in Materials and Methods.
CHO-K1 cells were plated at a density of 10^6 cells/175 cm^2 containing complete media with 500 μg/ml hygromycin. The flasks were maintained in an incubator at 37° C. with 5.0% CO2 for 72 hr. The media was changed and the cells were allowed to grow overnight. The cells were washed and dissociated from the plate with PBS containing 0.5 mM EDTA. Cellular cAMP content was measured by centrifuging the cell suspension at 150 g×10 min and resuspending the cells in a Hanks buffered salt solution at a density of 0.2×10^6 cells/ml. The cells were preincubated at room temperature for 15 min and then incubated with 10 μM prostaglandin I2 (PGI2) and the indicated compound for an additional 10 min. Basal cAMP levels were determined by incubating the cells in 0.1% DMSO. The incubations were terminated by the addition of HCl (0.1N final) and the cells measured for cAMP.
Determinations of whole-cell cAMP content were performed by incubating 100 μl reconstituted rabbit anti-succinyl cAMP serum with 100 μl of the whole-cell reaction or known cAMP standard and 30 pmol of 125I-cAMP TME in a […]™ well (300 μl final volume) at room temperature for 18 h. Total cpm (Bo) was determined in the absence of sample or cAMP standard. The reaction mixture was then aspirated out of the well, and individual wells were counted in a BECKMAN LS 6000SC with the window open from 10-999 for 1 min. The data were expressed as %B/Bo=[(standard or sample cpm--non-specific cpm)/(Bo cpm-non-specific cpm)]×100. Non-specific cpm were determined by incubating only the 125I-cAMP TME with assay buffer (50 mM acetate; pH 5.8) in the ScintiStrip™ well. All determinations were performed in triplicate.

[4] = target: T1, recombinant full-length human PDE IVa (rhPDEIVa) (Homo sapiens, UniProt P27815, M723I); assay: Phosphodiesterase Scintillation Proximity Assay, inhibition of soluble rhPDE IVa (100,000×g supernatant of transfected CHO-K1 cells); assay type: biochemical
T1 construct: a cDNA insert encoding for a full-length human PDE IVa enzyme; made in house; host or cells: CHO-K1 cells, stably transfected (also expressing the prostanoid IP receptor); 100,000xg supernatant of the sonicate
T1 sequence (P27815 whole entry M723I): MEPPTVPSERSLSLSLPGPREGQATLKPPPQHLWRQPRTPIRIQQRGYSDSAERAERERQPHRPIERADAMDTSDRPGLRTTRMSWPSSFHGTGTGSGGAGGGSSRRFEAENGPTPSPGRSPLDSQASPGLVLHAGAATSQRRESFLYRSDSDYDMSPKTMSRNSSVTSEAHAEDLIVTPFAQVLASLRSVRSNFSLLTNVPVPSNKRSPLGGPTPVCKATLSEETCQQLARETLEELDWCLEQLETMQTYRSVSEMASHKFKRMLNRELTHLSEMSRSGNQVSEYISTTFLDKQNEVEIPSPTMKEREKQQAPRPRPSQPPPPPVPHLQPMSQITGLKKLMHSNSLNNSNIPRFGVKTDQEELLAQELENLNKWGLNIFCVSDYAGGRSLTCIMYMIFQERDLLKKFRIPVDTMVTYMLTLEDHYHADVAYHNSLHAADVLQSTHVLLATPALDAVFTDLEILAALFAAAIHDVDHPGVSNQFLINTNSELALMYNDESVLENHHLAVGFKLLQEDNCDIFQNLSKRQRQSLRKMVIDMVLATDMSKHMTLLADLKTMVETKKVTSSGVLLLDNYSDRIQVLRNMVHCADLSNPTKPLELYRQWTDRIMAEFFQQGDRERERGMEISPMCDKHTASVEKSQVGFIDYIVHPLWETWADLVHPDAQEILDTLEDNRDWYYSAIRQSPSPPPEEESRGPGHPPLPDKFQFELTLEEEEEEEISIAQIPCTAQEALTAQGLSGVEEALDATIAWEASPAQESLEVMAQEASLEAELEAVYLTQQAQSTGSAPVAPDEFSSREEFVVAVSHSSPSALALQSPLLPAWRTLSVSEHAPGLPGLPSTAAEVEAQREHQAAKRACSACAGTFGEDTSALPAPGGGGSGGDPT
Description: Inhibition of soluble rhPDEIVa by specific inhibitors was examined at 100 nM substrate. Enzyme activity was determined as described in Materials and Methods using the Amersham SPA beads that specifically bind 5'AMP.
Inhibition of soluble rhPDEIVa by specific inhibitors was examined in the presence of 5 mM to 100 mM MgCl2. Enzyme activity was determined as described in Materials and Methods using the Amersham SPA beads that specifically bind 5'AMP in the presence of […] cAMP substrate.

HSA = assay: [3H](R)-rolipram binding to HSA; parameters: species or system human; settings: presence or absence of 150 mM KCl
Description: (§1) The filters were quickly washed with an ice-cold solution of 50 mM Tris; pH 7.5. […] Non-specific binding amounted to less than 5% of the total measured binding activity.

FLAG PDE IVAmet330 = FLAG PDE IVAmet330 (Homo sapiens, UniProt P27815, M723I); assay type: binding; parameters: made in house; settings: 0.2 to 100 nM [^3 H](R)-rolipram
Sequence of FLAG PDE IVAmet330 (P27815 332-886 M723I): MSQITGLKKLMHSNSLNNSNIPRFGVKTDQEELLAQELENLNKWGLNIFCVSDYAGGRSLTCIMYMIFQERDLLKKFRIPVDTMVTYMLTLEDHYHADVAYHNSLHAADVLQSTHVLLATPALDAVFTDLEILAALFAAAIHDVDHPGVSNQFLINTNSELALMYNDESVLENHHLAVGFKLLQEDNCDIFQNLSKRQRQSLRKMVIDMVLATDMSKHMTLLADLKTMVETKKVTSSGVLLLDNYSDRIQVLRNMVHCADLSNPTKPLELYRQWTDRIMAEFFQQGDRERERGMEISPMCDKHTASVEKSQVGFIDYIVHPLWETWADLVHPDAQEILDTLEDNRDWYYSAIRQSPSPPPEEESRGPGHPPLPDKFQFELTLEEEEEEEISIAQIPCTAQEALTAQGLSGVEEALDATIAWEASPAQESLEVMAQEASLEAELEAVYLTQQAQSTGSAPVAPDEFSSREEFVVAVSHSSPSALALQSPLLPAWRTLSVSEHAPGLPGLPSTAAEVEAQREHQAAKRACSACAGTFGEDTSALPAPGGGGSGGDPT
Description: CHO-K1 cells stably expressing epitope FLAG PDE IV constructs were lysed by sonication for 10 secs at a power setting of 50% (Braunsonic Model 2000) in an ice cold solution containing 50 mM Tris, pH 7.5; 1 mM EDTA; protease inhibitor cocktail (Boehringer, Montreal, QUE). The soluble and particulate fractions of the cell were obtained by centrifuging the sonicate for 90 min at 100,000×g at 40° C. […] The affinity matrix was washed with column buffer until all unbound protein was eluted from the column as determined with a UV-2 flow cell. Bound material was eluted with column buffer containing 0.5 mg/ml. FLAG peptide at a flow rate of 2 ml/min.
as §1

FLAG PDE IVA = FLAG PDE IVA (Homo sapiens, UniProt P27815, M723I)
Sequence of FLAG PDE IVA (P27815 whole entry M723I): as the sequence (P27815 whole entry M723I) above
Description: Each point represents the mean of 3 separate experiments performed in duplicate±SEM. […] Each point represents the average of 3 separate experiments.
CHO-K1 cells stably expressing epitope FLAG PDE IV constructs were lysed by sonication for 10 secs at a power setting of 50% (Braunsonic Model 2000) in an ice cold solution containing 50 mM Tris, pH 7.5; 1 mM EDTA; protease inhibitor cocktail (Boehringer, Montreal, QUE). The soluble and particulate fractions of the cell were obtained by centrifuging the sonicate for 90 min at 100,000×g at 40° C. Twenty-five ml. […] The affinity matrix was washed with column buffer until all unbound protein was eluted from the column as determined with a UV-2 flow cell. Bound material was eluted with column buffer containing 0.5 mg/ml. FLAG peptide at a flow rate of 2 ml/min.
(§2) The filters were quickly washed with an ice-cold solution of 50 mM Tris; pH 7.5.

rhPDE IVa = rhPDE IVa (Homo sapiens, UniProt P27815, M723I)
Sequence of rhPDE IVa (P27815 whole entry M723I): as above
Description: Shown is the saturable binding to the soluble rhPDE IVa enzyme with increasing concentrations of ligand from 0.2 to 100 nM (panal A).
as §2

[5] = target: T1, recombinant full-length human PDE IVa (rhPDEIVa); assay: Phosphodiesterase Scintillation Proximity Assay, inhibition of soluble rhPDE IVa (100,000×g supernatant of transfected CHO-K1 cells); assay type: biochemical; settings: broken-cell preparation; data not shown
[6] = Kinetic characterization of PDE IVa enzymes with cAMP as substrate; assay type: biochemical
Description: PDE IVa activity was assayed in the 100,000×g supernatant obtained from sonicated CHO-K1 cells stably expressing the enzyme. The enzyme activity was assayed in duplicate at substrate concentrations ranging from 0.2 μM to 30 μM using the Amersham SPA beads as described in Materials and Methods. Shown are the saturation kinetics for the enzyme. The inset graph is a double-reciprocal plot of the kinetic data. Average of 3 separate experiments +/- SD .
Panel A. Shown are the saturation kinetics for the enzyme.PDE IVA activity was assayed in the 100,000×g supernatant obtained from sonicated CHO-K1 cells stably expressing the enzyme. The enzyme activity was assayed in duplicate at substrate concentrations ranging from 0.2 mM to 10 mM using the Amersham SPA beads as described in Materials and Methods. Average of 3 separate experiments +/- SEM . Panel B. Double-reciprocal replot of the averaged saturation data.

For `COc1ccc(C2CNC(=O)C2)cc1OC1CCCC1` (racemic) [(±)[3H] rolipram], the “increase in high-affinity binding” value ([1]; 100 mM NaCl and 1 mM MgCl2) is given as 20 fold and the Bmax ([1]; rat forebrain membranes) is given as 19.3 pmol/g rat forebrain.

`COc1ccc([C@H]2CNC(=O)C2)cc1OC1CCCC1` [(S)-rolipram] gave an EC50 [2] of 1000 nM.

Work on `CCCCC[C@H](O)/C=C/[C@@H]1[C@H]2C/C(=C/CCCC(=O)O)O[C@H]2C[C@H]1O` [PGI2, prostaglandin I2] yielded a fold induction at 10 µM ([3]; CHO-K1, 10 min, read-out: increase in basal cAMP content) of 2 and an activation at 10 µM ([3]; CHO-K1, 10 min, PGI2 alone, read-out: increase in basal cAMP levels) of roughly 50%.

In the case of `O=[N+]([O-])c1cccc(-c2cc(Cc3ccncc3)cc3cccnc23)c1` [RS 14203], the IC50 ([4]; 100 nM cAMP substrate, read-out: IC50 for inhibition of soluble PDE IVa activity) is reported as 9 nM, the IC50 ([4]; 5 mM MgCl2, read-out: IC50, inhibition of soluble rhPDEIVa) is reported as 140 nM and the IC50 ([4]; 100 mM MgCl2, read-out: IC50, inhibition of soluble rhPDEIVa) is reported as 0.5 nM. For the same molecule, the “effect of increased salt / ionic strength on inhibitory potency (IC50)” value ([4]; increasing MgCl2 or other salt in assay buffer) was “became more potent; also recorded: salt dependent shift in IC50 from low to high affinity”, the EC50 ([3]; CHO-K1, with 10 μM PGI2 (b116 prints 10 FM), read-out: EC50 for elevating cellular cAMP) was 27 nM and the “cellular cAMP reached” value ([3]; with PGI2, from 0.2 pmol cAMP/10^4 cells) was 3.6 pmols cAMP/10^4 cells. For the same molecule, the EC50 [2] was 10 nM.

In the case of `COc1ccc([C@@H]2CNC(=O)C2)cc1OC1CCCC1` [[^3 H](R)-rolipram], the “specific binding to HSA” value (HSA) is reported as “No specific binding”, the “saturable high-affinity binding to truncated enzyme” value (FLAG PDE IVAmet330) is reported as “did not exhibit any saturable binding; also recorded: does not display any saturable high-affinity [^3 H](R)-rolipram binding” and the Stochiometry (FLAG PDE IVA; 0 mM KCl) is reported as 0.02 (0.0) fmol [^3 H](R)-Rolipram/fmol P. For the same molecule, the Bmax (FLAG PDE IVA; 0 mM KCl + 3 mg/ml HSA) was 150 (47) fmol [^3 H](R)-rolipram, the Stochiometry (FLAG PDE IVA; 0 mM KCl + 3 mg/ml HSA) was 0.10 (0.03) fmol [^3 H](R)-Rolipram/fmol P and the Bmax (FLAG PDE IVA; 3 mg/ml HSA) was 150±47 fmol/1.6 pmol enzyme. The “increase in Bmax” value (FLAG PDE IVA; 3 mg/ml HSA) was 5 fold, the Bmax (FLAG PDE IVA; 150 mM KCl) was 63 (16) fmol [^3 H](R)-rolipram and the Stochiometry (FLAG PDE IVA; 150 mM KCl) was 0.04 (0.01) fmol [^3 H](R)-Rolipram/fmol P. For the same molecule, the Bmax (FLAG PDE IVA; 150 mM KCl (text)) was 63±16 fmol/1.6 pmol enzyme, the Bmax (FLAG PDE IVA; 150 mM KCl + 3 mg/ml HSA) was 240 (37) fmol [^3 H](R)-rolipram and the Stochiometry (FLAG PDE IVA; 150 mM KCl + 3 mg/ml HSA) was 0.15 (0.03) fmol [^3 H](R)-Rolipram/fmol P. The Bmax (FLAG PDE IVA; 150 mM KCl + 3 mg/ml HSA (text)) was 240 fmol/1.6 pmol purified enzyme, the Bmax (rhPDE IVa; 150 mM KCl) was 0.47 pmol/20 μg prot and the “Hill coefficient of binding” value (rhPDE IVa; 300 mM KCl) was 2. It also gave a Bmax (rhPDE IVa; absence of added KCl) of 0.16 pmol/20 μg prot.

For `C=C1[C@@H](O)[C@@H]2O[C@]3(CC[C@H](/C=C/[C@@H](C)[C@@H]4CC(C)=C[C@@]5(O[C@H](C[C@@](C)(O)C(=O)O)CC[C@H]5O)O4)O3)CC[C@H]2O[C@@H]1[C@@H](O)C[C@H](C)[C@H]1O[C@@]2(CCCCO2)CC[C@H]1C` [okadaic acid], the “effect of preincubation on sensitivity of the enzyme to inhibitors” value (shortened to “effect of preincubation … to inhibitors”) [5] was “no effect on the sensitivity of the enzyme to inhibitors” and the “effect of preincubation … to inhibitors” value [3] was “no effect on the sensitivity of the enzyme to inhibitors”.

With `CO[C@H]([C@H](O)CC(=O)[C@@H](C)[C@@H](O)CC[C@@H](C)[C@@H]1O[C@]2(CC[C@@H](C)[C@H](CC[C@H](C)C(C)=O)O2)CC[C@@H]1C)[C@H](OC(=O)C[C@@H](O)C1=C(C)C(=O)OC1=O)C(C)C` [tautomycin] the “effect of preincubation … to inhibitors” value [5] was “no effect on the sensitivity of the enzyme to inhibitors” and the “effect of preincubation … to inhibitors” value [3] was “no effect on the sensitivity of the enzyme to inhibitors”.

B1: PDE IVa: recombinant full-length human PDE IVa enzyme stably expressed in CHO-K1 cells (protein, UniProt P27815 1-886, looked up)
chain: MEPPTVPSERSLSLSLPGPREGQATLKPPPQHLWRQPRTPIRIQQRGYSDSAERAERERQPHRPIERADAMDTSDRPGLRTTRMSWPSSFHGTGTGSGGAGGGSSRRFEAENGPTPSPGRSPLDSQASPGLVLHAGAATSQRRESFLYRSDSDYDMSPKTMSRNSSVTSEAHAEDLIVTPFAQVLASLRSVRSNFSLLTNVPVPSNKRSPLGGPTPVCKATLSEETCQQLARETLEELDWCLEQLETMQTYRSVSEMASHKFKRMLNRELTHLSEMSRSGNQVSEYISTTFLDKQNEVEIPSPTMKEREKQQAPRPRPSQPPPPPVPHLQPMSQITGLKKLMHSNSLNNSNIPRFGVKTDQEELLAQELENLNKWGLNIFCVSDYAGGRSLTCIMYMIFQERDLLKKFRIPVDTMVTYMLTLEDHYHADVAYHNSLHAADVLQSTHVLLATPALDAVFTDLEILAALFAAAIHDVDHPGVSNQFLINTNSELALMYNDESVLENHHLAVGFKLLQEDNCDIFQNLSKRQRQSLRKMVIDMVLATDMSKHMTLLADLKTMVETKKVTSSGVLLLDNYSDRIQVLRNMVHCADLSNPTKPLELYRQWTDRIMAEFFQQGDRERERGMEISPMCDKHTASVEKSQVGFIDYIVHPLWETWADLVHPDAQEILDTLEDNRDWYYSAIRQSPSPPPEEESRGPGHPPLPDKFQFELTLEEEEEEEISMAQIPCTAQEALTAQGLSGVEEALDATIAWEASPAQESLEVMAQEASLEAELEAVYLTQQAQSTGSAPVAPDEFSSREEFVVAVSHSSPSALALQSPLLPAWRTLSVSEHAPGLPGLPSTAAEVEAQREHQAAKRACSACAGTFGEDTSALPAPGGGGSGGDPT
modifications: full-length
notes: recombinant full-length human PDE IVa enzyme stably expressed in CHO-K1 cells
In the case of B1, the Vmax ([6]; soluble PDE IVa from CHO-K1 cells) is reported as 19.5 nM cAMP hydrolyzed/mg. protein per min and the Km ([6]; soluble PDE IVa from CHO-K1 cells, read-out: Km of the enzyme for cAMP as a substrate) is reported as 3.5 µM.

B2: FLAG PDE IVA: purified full-length epitope FLAG PDE IVA enzyme (protein, UniProt P27815 1-886, looked up)
chain: B1 chain
modifications: full-length FLAG epitope tag
B2 gave a Vmax ([6]; 150 mM KCl, 0 mg/ml HSA) of 9.7 ± 0.2 μm/mg/min, a Vmax ([6]; 150 mM KCl, 3 mg/ml HSA) of 4.8 ± 0 μm/mg/min and a Km ([6]; 150 mM KCl, 3 mg/ml HSA, read-out: Km) of 4.8 ± 0.1 µM.
